# Data: patent US11426402B2, “IRE1 activating compounds for use in therapy” (The Scripps Research Institute, priority 2019, dated 2022)
# Columns and labels:
# [1] = Toxicity, body weight and food intake in DIO mice; format: in vivo
# Protocol: (§1) FIGS. 7A-7D. RT-PCR of Xbp1s and the IRE1/XBP1s target gene Erdj4 from adipose tissue post single IP dose of 474 (FIG. 7A). Liver RNAseq profiles of ATF6, IRE1 and PERK target genes expressed as log 2 fold change of chronic 474 treatment compared to vehicle (FIG. 7B). Body weight (FIG. 7C) and food intake (FIG. 70) over 6 weeks of dosing.
# (§2) To test the efficacy of pharmacologic IRE1 activation in mitigating T2D, we chronically administered 474 by once-daily IP injections at 50 mg/kg for a period of 6 weeks to Diet-Induced Obese (DIO) mice, a model of T2D.
# [2] = test system: SHSY5Y cells; test: CellTiterGlo ATP levels in SHSY5Y cells overexpressing APP SW; format: cell-based; settings: APP SW overexpressing cells cultured in galactose, 10 μM, 72 hours
# Protocol: (§3) FIGS. 6A-6C. Histograms showing TMRE staining of SH-SY5Y cells transiently expressing empty vector (Mock) or Swedish mutant APP in the presence or absence of 474 (10 μM) for 72 hours (FIG. 6A). Quantification of TMRE staining in (A). Error bars represent SEM for n=3 replicates. Statistics calculated from one-tailed Student's t-test. *p<0.05, **p<0.01, ***p<0.001 (FIG. 613). Graph showing relative luminescence from CellTiterGlo assay of SH-SY5Y cells transiently expressing empty vector or Swedish mutant APP cultured in galactose media for 72 hours in the presence or absence of IRE1 activator 474 (10 μM). Error bars represent SEM for n=3 replicates. Statistics calculated from one-tailed Student's t-test. *p<0.05, **p<0.01, ***p<0.001 (FIG. 6C).
# For determination of relative cellular ATP levels, SHSY5Y cells were seeded into flat black, poly-D-lysine coated 96-well plates (Corning). […] Luminescence was then measured in an Infinite F200 PRO plate reader (Tecan and corrected for background signal. All measurements were performed in biologic triplicate.
# Mitochondrial depolarization decreases the capacity for cells to produce ATP through oxidative phosphorylation at the inner mitochondrial membrane. […] Accordingly, ATP levels were monitored in SHSY5Y cells overexpressing APP^SW and incubated in media that was supplemented with glucose or galactose. […]
# [3] = test system: IRE1 target genes; test: Liver RNA sequencing of DIO mice, IRE1 targets; format: in vivo, mouse; settings: once-daily IP 50 mg/kg, 6 weeks
# Protocol: as §1, §2
# [4] = test system: APP; test: APP immunoblots of lysates and conditioned media of CHO 7PA2 cells; format: cell-based; settings: CHO 7PA2, 10 μM
# Protocol: FIGS. 5A-5D. […] Cells were treated for 18 hours, media was then replaced and conditioned in the presence of treatments for 24 hours before harvesting for ELISA assay. Error bars represent SEM for n=3 replicates. Statistics calculated from one-tailed Student's t-test. *p<0.05, **p<0.01, ***p<0.001 (FIG. 5A). Quantification of media and lysate immunoblots from 474 treatment (10 μM) of APP. Error bars represent Standard Deviation for n=3 replicates. Statistics calculated from one-tailed Student's t-test. *p<0.05, **p<0.01 ***p<0.001 (FIG. 5B). Plot showing fraction of total remaining APP at each time point after S35 metabolic labeling of newly synthesized protein, accounting for the sum of APP in lysate and media. Error bars represent Standard Deviation for n=3 replicates. Statistics calculated from one-tailed Student's t-test. *p<0.05, **p<0.01, ***p<0.001 (FIG. 5C). Plot showing fraction of secreted APP collected at 2 hours after metabolic labeling. Error bars represent Standard Deviation for n=3 replicates. Statistics calculated from one-tailed Student's t-test. *p<0.05, **p<0.01, ***p<0.001 (FIG. 5D). […]
# [5] = test system: PERK target genes; test: Liver RNA sequencing of DIO mice, PERK targets; format: in vivo, mouse; settings: once-daily IP 50 mg/kg, 6 weeks
# Protocol: as §1, §2
# [6] = test system: DNAJB9; test: DNAJB9 expression in SHSY5Y cells overexpressing APP SW; format: cell-based
# [7] = test system: SHSY5Y cells; test: TMRE staining of mitochondrial membrane potential in SHSY5Y cells; format: cell-based; settings: 10 μM, 72 hours
# Protocol: as §3
# Cells were treated as indicated then incubated with TMRE dye (200 nM) for 30 mins at 37° C. Samples were collected by trypsinization. Trypsin was neutralized by washing into cell culture media and then samples were washed twice in DPBS. […] Fluorescence intensity of TMRE was recorded on the PE channel of a Novocyte Flow Cytometer (ACEA Biosciences, Inc.). Data are presented as mean of the fluorescence intensity from 3 experiments. For each experiment, 10,000 cells per condition in triplicates were recorded.
# Next, mitochondrial membrane potential was monitored in SHSY5Y cells overexpressing APP^SW and that had been treated with 474. […]
compound,measurement,setting,value
Cc1ccc(OCCN(C)C(=O)Cn2cc(NC(=O)CCOc3ccccc3)cn2)cc1 [Compound 474],body weight and food intake,[1]; 6-week dosing period,remaining similar in all groups
same,toxicity,"[1]; DIO mice, once-daily IP 50 mg/kg, 6 weeks",no evident toxicity
same,ATP levels,[2],increased
same,Xbp1 splicing in liver,[3],robust Xbp1splicing
same,downstream IRE1 targets in liver,[3],selective activation
same,APP levels in lysates and conditioned media,[4],reduced APP levels in both lysates and conditioned media
same,PERK target genes in liver,[5],no induction
same,DNAJB9 expression,[6],further increased
same,APP SW-associated reductions in mitochondrial membrane potential,[7]; SHSY5Y overexpressing APP SW,prevented
same,mitochondrial membrane potential,[7]; mock-transfected cells,did not influence
